Laboratory results: patent US11603382B2, “Diastereoselective synthesis of phosphate derivatives” (NuCana plc, priority 2015, dated 2023)

Tests used:
solubility in water = format: physicochemical; details: regardless of salt content or pH
Experimental: NUC-1031 is extremely lipophillic and thus poorly water soluble (by calculation: <0.1 mg/mL), and the ionisable moieties have calculated pKas which lie out-side the pH range suitable for parenteral administration. […] It also has implications for the development of efficient manufacturing processes which will allow NUC-1031 to be produced cost effectively.

[1] = solubility in mixtures of polar organic solvents with water; format: physicochemical
Text: It has recently been discovered that the (S)-epimer of gemcitabine-[phenyl-benzoxy-L-alaninyl)]-phosphate has sufficient solubility in mixtures of a number of polar organic solvents with water to render it suitable for formulation and administration as a therapeutic agent. […] In certain solvent mixtures the difference in solubility between the (S)-epimer and the (R)-epimer is over 100 fold. It is expected therefore that more clinically effective, practical and patient friendly administration methods can be developed using the (S)-epimer than can be developed using the (R)-epimer or using the mixture. It is thus desirable to be able to provide gemcitabine-[phenyl-benzoxy-L-alaninyl)]-(S)-phosphate in substantially diastereoisomerically pure form.

[2] = system: isolated human hepatic cells; test: half-life on incubation with isolated human hepatic cells; format: in vitro ADME
Text: The longer half-life associated with (R)-isomer indicates a lower intrinsic clearance and should result in a different pharmacokinetic and pharmacodynamic profile to the (S)-isomer which may offer some benefits.

In the case of `C[C@H](NP(=O)(OC[C@H]1O[C@@H](n2ccc(N)nc2=O)C(F)(F)C1O)Oc1ccccc1)C(=O)OCc1ccccc1` (stereo partly drawn) [NUC-1031, 2′-deoxy-2′,2′-difluoro-D-cytidine-5′-O-[phenyl(benzoxy-L-alaninyl)] phosphate], the solubility in water (solubility in water) is reported as “essentially insoluble in water”.

For `C[C@H](N[P@](=O)(OC[C@H]1O[C@@H](n2ccc(N)nc2=O)C(F)(F)C1O)Oc1ccccc1)C(=O)OCc1ccccc1` (stereo partly drawn) [(S)-epimer], the “difference in solubility between the (S)-epimer and the (R)-epimer” value ([1]; in certain solvent mixtures (polar organic solvents with water), (S)-epimer over (R)-epimer) was “over 100 fold”.

In the case of `C[C@H](N[P@@](=O)(OC[C@H]1O[C@@H](n2ccc(N)nc2=O)C(F)(F)C1O)Oc1ccccc1)C(=O)OCc1ccccc1` (stereo partly drawn) [(R)-epimer], the “solubility relative to the (S)-epimer” value ([1]; mixtures of polar organic solvents with water) is reported as “considerably lower” and the “half-life relative to that of the (S)-epimer” value [2] is reported as “four times”.
